Where a name gives a salt, the structure may show the parent alone. Read-outs that look alike come from different tables or passages of the source.
Experiments:
Experiment in all cases: AK assay 384-well format, Prestwick library screening
E. coli = assay type: cell-based, Escherichia coli; details: Escherichia coli, 3 h, 50 μM final drug concentration
E. cloacae = assay type: cell-based, Enterobacter cloacae; details: Enterobacter cloacae, 3 h, 50 μM final drug concentration
[1] = tested on: A. baumannii strain 98-37-09; assay type: cell-based, Acinetobacter baumannii; details: Acinetobacter baumannii, 983709, 3 h, 50 μM final drug concentration
P. aeruginosa = assay type: cell-based, Pseudomonas aeruginosa; details: Pseudomonas aeruginosa, 3 h, 50 μM final drug concentration
[2] = tested on: S. aureus strain USA300-0114; assay type: cell-based, Staphylococcus aureus; details: Staphylococcus aureus, USA300, 3 h, 50 μM final drug concentration
E. faecium = assay type: cell-based, Enterococcus faecium; details: Enterococcus faecium, 3 h, 50 μM final drug concentration
K. pneumoniae = assay type: cell-based, Klebsiella pneumoniae; details: Klebsiella pneumoniae, 3 h, 50 μM final drug concentration
[3] = planktonic E. coli, 384-well, cutoff for positive-scoring molecules 3-fold increase, read-out: AK-based Prestwick Library Screening Results: E. coli (increase in extracellular AK activity)
[4] = planktonic E. cloacae, 384-well, cutoff for positive-scoring molecules 3-fold increase, read-out: AK-based Prestwick Library Screening Results: E. cloacae (increase in extracellular AK activity)
[5] = planktonic A. baumannii, 384-well, cutoff for positive-scoring molecules 3-fold increase, read-out: AK-based Prestwick Library Screening Results: A. baumannii (increase in extracellular AK activity)
[6] = planktonic P. aeruginosa, 384-well, cutoff for positive-scoring molecules 3-fold increase, read-out: AK-based Prestwick Library Screening Results: P. aeruginosa (increase in extracellular AK activity)
[7] = planktonic S. aureus, 384-well, cutoff for positive-scoring molecules 3-fold increase, read-out: AK-based Prestwick Library Screening Results: S. aureus (increase in extracellular AK activity)
[8] = planktonic E. faecium, 384-well, cutoff for positive-scoring molecules 3-fold increase, read-out: AK-based Prestwick Library Screening Results: E. faecium (increase in extracellular AK activity)
[9] = planktonic K. pneumoniae, 384-well, cutoff for positive-scoring molecules 3-fold increase, read-out: AK-based Prestwick Library Screening Results: K. pneumoniae (increase in extracellular AK activity)
[10] = planktonic E. coli, cutoff for positive-scoring molecules 3-fold increase, read-out: AK-based Prestwick Library Screening Results, E. coli (increase in extracellular AK activity)
[11] = planktonic E. cloacae, cutoff for positive-scoring molecules 3-fold increase, read-out: AK-based Prestwick Library Screening Results, E. cloacae (increase in extracellular AK activity)
[12] = planktonic A. baumannii, cutoff for positive-scoring molecules 3-fold increase, read-out: AK-based Prestwick Library Screening Results, A. baumannii (increase in extracellular AK activity)
[13] = planktonic P. aeruginosa, cutoff for positive-scoring molecules 3-fold increase, read-out: AK-based Prestwick Library Screening Results, P. aeruginosa (increase in extracellular AK activity)
[14] = planktonic S. aureus, cutoff for positive-scoring molecules 3-fold increase, read-out: AK-based Prestwick Library Screening Results, S. aureus (increase in extracellular AK activity)
[15] = planktonic E. faecium, cutoff for positive-scoring molecules 3-fold increase, read-out: AK-based Prestwick Library Screening Results, E. faecium (increase in extracellular AK activity)
[16] = planktonic K. pneumoniae, cutoff for positive-scoring molecules 3-fold increase, read-out: AK-based Prestwick Library Screening Results, K. pneumoniae (increase in extracellular AK activity)

Q: How did the fold induction at 50 µM (E. coli; [3]) turn out when `Nc1c2c(nc3ccccc13)CCCC2` [Tacrine hydrochloride hydrate] was run?
A: 0.5

Q: What about the fold induction at 50 µM (E. cloacae; [4]) of the same compound?
A: 0.4

Q: And the fold induction at 50 µM [1, 5]?
A: 0.5

Q: What about the fold induction at 50 µM (P. aeruginosa; [6]) of the same compound?
A: 0.5

Q: And the fold induction at 50 µM [2, 7]?
A: 0.5

Q: And the fold induction at 50 µM (E. faecium; [8])?
A: 0.9

Q: What about the fold induction at 50 µM (K. pneumoniae; [9]) of the same compound?
A: 0.4

Q: How did the fold induction at 50 µM (E. coli; planktonic E. coli, […], read-out: AK-based Prestwick library screening result, E. coli (fold increase in extracellular AK activity)) turn out when `CC1(C)S[C@@H]2[C@H](NC(=O)[C@H](N)c3ccccc3)C(=O)N2[C@H]1C(=O)OC1OC(=O)c2ccccc21` (stereo partly shown) [Talampicillin hydrochloride] was run?
A: 15.2

Q: And the fold induction at 50 µM (E. cloacae; planktonic E. cloacae, […], read-out: AK-based Prestwick library screening result, E. cloacae (fold increase in extracellular AK activity))?
A: 1.6

Q: What about the fold induction at 50 µM ([1]; planktonic A. baumannii, […], read-out: AK-based Prestwick library screening result, A. baumannii (fold increase in extracellular AK activity)) of the same compound?
A: 0.8

Q: And the fold induction at 50 µM (P. aeruginosa; planktonic P. aeruginosa, […], read-out: AK-based Prestwick library screening result, P. aeruginosa (fold increase in extracellular AK activity))?
A: 1.1

Q: And the fold induction at 50 µM ([2]; planktonic S. aureus, […], read-out: AK-based Prestwick library screening result, S. aureus (fold increase in extracellular AK activity))?
A: 1.2

Q: What about the fold induction at 50 µM (E. faecium; planktonic E. faecium, […], read-out: AK-based Prestwick library screening result, E. faecium (fold increase in extracellular AK activity)) of the same compound?
A: 1.4

Q: And the fold induction at 50 µM (K. pneumoniae; planktonic K. pneumoniae, […], read-out: AK-based Prestwick library screening result, K. pneumoniae (fold increase in extracellular AK activity))?
A: 0.8

Q: Which fold induction at 50 µM (E. coli; [3]) does the source give for `CC/C(=C(\c1ccccc1)c1ccc(OCCN(C)C)cc1)c1ccccc1` [Tamoxifen citrate] here?
A: 1.9

Q: And the fold induction at 50 µM (E. cloacae; [4])?
A: 1.3

Q: And the fold induction at 50 µM [1, 5]?
A: 6.6

Q: What about the fold induction at 50 µM (P. aeruginosa; [6]) of the same compound?
A: 1.4

Q: What about the fold induction at 50 µM [2, 7] of the same compound?
A: 2.1

Q: What about the fold induction at 50 µM (E. faecium; [8]) of the same compound?
A: 4

Q: What about the fold induction at 50 µM (K. pneumoniae; [9]) of the same compound?
A: 2.1

Q: With `Cc1scc2c1N(C(=O)CN1CCN(C)CC1)c1ccccc1NC2=O` [Telenzepine dihydrochloride] as the compound, how does the fold induction at 50 µM (E. coli; [3]) read?
A: 1.5

Q: What about the fold induction at 50 µM (E. cloacae; [4]) of the same compound?
A: 1.4

Q: And the fold induction at 50 µM [1, 5]?
A: 1.6

Q: What about the fold induction at 50 µM (P. aeruginosa; [6]) of the same compound?
A: 1.2

Q: And the fold induction at 50 µM [2, 7]?
A: 1.3

Q: And the fold induction at 50 µM (E. faecium; [8])?
A: 1.1

Q: What about the fold induction at 50 µM (K. pneumoniae; [9]) of the same compound?
A: 1

Q: With `CN1C(C(=O)Nc2ccccn2)=C(O)c2sccc2S1(=O)=O` [Tenoxicam] as the compound, how does the fold induction at 50 µM (E. coli; planktonic, cutoff for positive 3-fold increase, read-out: AK-based Prestwick Library Screening Results, E. coli (fold increase in extracellular AK activity)) read?
A: 1.3

Q: And the fold induction at 50 µM (E. cloacae; planktonic, cutoff for positive 3-fold increase, read-out: AK-based Prestwick Library Screening Results, E. cloacae (fold increase in extracellular AK activity))?
A: 1.6

Q: And the fold induction at 50 µM ([1]; planktonic, cutoff for positive 3-fold increase, read-out: AK-based Prestwick Library Screening Results, A. baumannii (fold increase in extracellular AK activity))?
A: 1

Q: What about the fold induction at 50 µM (P. aeruginosa; planktonic, cutoff for positive 3-fold increase, read-out: AK-based Prestwick Library Screening Results, P. aeruginosa (fold increase in extracellular AK activity)) of the same compound?
A: 1.1

Q: And the fold induction at 50 µM ([2]; planktonic, cutoff for positive 3-fold increase, read-out: AK-based Prestwick Library Screening Results, S. aureus (fold increase in extracellular AK activity))?
A: 1.2

Q: And the fold induction at 50 µM (E. faecium; planktonic, cutoff for positive 3-fold increase, read-out: AK-based Prestwick Library Screening Results, E. faecium (fold increase in extracellular AK activity))?
A: 1

Q: And the fold induction at 50 µM (K. pneumoniae; planktonic, cutoff for positive 3-fold increase, read-out: AK-based Prestwick Library Screening Results, K. pneumoniae (fold increase in extracellular AK activity))?
A: 0.9

Q: What does the source list for `COc1cc2nc(N3CCN(C(=O)C4CCCO4)CC3)nc(N)c2cc1OC` (stereo not shown) [Terazosin hydrochloride]?
A: fold induction at 50 µM (E. coli; planktonic, cutoff for positive-scoring molecules 3-fold increase, read-out: AK-based Prestwick Library Screening Results, E. coli (fold increase in extracellular AK activity)): 0.8; fold induction at 50 µM (E. cloacae; planktonic, cutoff for positive-scoring molecules 3-fold increase, read-out: AK-based Prestwick Library Screening Results, E. cloacae (fold increase in extracellular AK activity)): 1.2; fold induction at 50 µM ([1]; planktonic, cutoff for positive-scoring molecules 3-fold increase, read-out: AK-based Prestwick Library Screening Results, A. baumannii (fold increase in extracellular AK activity)): 0.7; fold induction at 50 µM (P. aeruginosa; planktonic, cutoff for positive-scoring molecules 3-fold increase, read-out: AK-based Prestwick Library Screening Results, P. aeruginosa (fold increase in extracellular AK activity)): 0.6; fold induction at 50 µM ([2]; planktonic, cutoff for positive-scoring molecules 3-fold increase, read-out: AK-based Prestwick Library Screening Results, S. aureus (fold increase in extracellular AK activity)): 0.8; fold induction at 50 µM (E. faecium; planktonic, cutoff for positive-scoring molecules 3-fold increase, read-out: AK-based Prestwick Library Screening Results, E. faecium (fold increase in extracellular AK activity)): 0.8; fold induction at 50 µM (K. pneumoniae; planktonic, cutoff for positive-scoring molecules 3-fold increase, read-out: AK-based Prestwick Library Screening Results, K. pneumoniae (fold increase in extracellular AK activity)): 0.7

Q: What does the source list for `CC(C)N1CCN(c2ccc(OCC3COC(Cn4cncn4)(c4ccc(Cl)cc4Cl)O3)cc2)CC1` (stereo not shown) [Terconazole]?
A: fold induction at 50 µM (E. coli; [10]): 0.9; fold induction at 50 µM (E. cloacae; [11]): 0.9; fold induction at 50 µM [1, 12]: 0.8; fold induction at 50 µM (P. aeruginosa; [13]): 0.8; fold induction at 50 µM [2, 14]: 0.6; fold induction at 50 µM (E. faecium; [15]): 1; fold induction at 50 µM (K. pneumoniae; [16]): 0.7

Q: With `CCC(=O)O[C@H]1CC[C@H]2[C@@H]3CCC4=CC(=O)CC[C@]4(C)[C@H]3CC[C@]12C` [Testosterone propionate] as the compound, how does the fold induction at 50 µM (E. coli; planktonic E. coli, 384-well, […], read-out: AK-based Prestwick Library Screening Results: E. coli (increase in extracellular AK activity)) read?
A: 0.5

Q: What about the fold induction at 50 µM (E. cloacae; planktonic E. cloacae, 384-well, […], read-out: AK-based Prestwick Library Screening Results: E. cloacae (increase in extracellular AK activity)) of the same compound?
A: 0.3

Q: And the fold induction at 50 µM ([1]; planktonic A. baumannii, 384-well, […], read-out: AK-based Prestwick Library Screening Results: A. baumannii (increase in extracellular AK activity))?
A: 0.5

Q: And the fold induction at 50 µM (P. aeruginosa; planktonic P. aeruginosa, 384-well, […], read-out: AK-based Prestwick Library Screening Results: P. aeruginosa (increase in extracellular AK activity))?
A: 0.4

Q: What about the fold induction at 50 µM ([2]; planktonic S. aureus, 384-well, […], read-out: AK-based Prestwick Library Screening Results: S. aureus (increase in extracellular AK activity)) of the same compound?
A: 0.3

Q: What about the fold induction at 50 µM (E. faecium; planktonic E. faecium, 384-well, […], read-out: AK-based Prestwick Library Screening Results: E. faecium (increase in extracellular AK activity)) of the same compound?
A: 0.9

Q: What about the fold induction at 50 µM (K. pneumoniae; planktonic K. pneumoniae, 384-well, […], read-out: AK-based Prestwick Library Screening Results: K. pneumoniae (increase in extracellular AK activity)) of the same compound?
A: 0.4

Q: How did the fold induction at 50 µM (E. coli; [10]) turn out when `CCCCNc1ccc(C(=O)OCCN(C)C)cc1` [Tetracaine hydrochloride] was run?
A: 0.9

Q: And the fold induction at 50 µM (E. cloacae; [11])?
A: 0.9

Q: What about the fold induction at 50 µM [1, 12] of the same compound?
A: 0.8

Q: What about the fold induction at 50 µM (P. aeruginosa; [13]) of the same compound?
A: 0.8

Q: And the fold induction at 50 µM [2, 14]?
A: 0.6

Q: And the fold induction at 50 µM (E. faecium; [15])?
A: 0.9

Q: And the fold induction at 50 µM (K. pneumoniae; [16])?
A: 0.6

Q: How did the fold induction at 50 µM (E. coli; [3]) turn out when `CN(C)[C@@H]1C(O)=C(C(N)=O)C(=O)[C@@]2(O)C(O)=C3C(=O)c4c(O)cccc4[C@@](C)(O)[C@H]3C[C@@H]12` [Tetracycline hydrochloride] was run?
A: 0.8

Q: And the fold induction at 50 µM (E. cloacae; [4])?
A: 1

Q: What about the fold induction at 50 µM [1, 5] of the same compound?
A: 4.4

Q: What about the fold induction at 50 µM (P. aeruginosa; [6]) of the same compound?
A: 0.5

Q: What about the fold induction at 50 µM [2, 7] of the same compound?
A: 9.2

Q: What about the fold induction at 50 µM (E. faecium; [8]) of the same compound?
A: 1

Q: And the fold induction at 50 µM (K. pneumoniae; [9])?
A: 0.2

From patent US10004701B2, “Methods and compositions for treating infection” (UNIVERSITY OF ROCHESTER, priority 2012, dated 2018)
